# Source: patent US20220257491A1, “Prebiotic Oral Care Compositions and Methods” (Colgate-Palmolive Company, priority 2021, published 2022)
# Marks after values point to notes of the source that are not given here.
# How the values were obtained:
# Assay type in all cases: cell-based
# [1] = test system: human oral keratinocytes (HOK-18A); experiment: Inflammatory mediator gene expression in keratinocytes exposed to substrate-treated biofilms; conditions: for Fold change in inflammatory mediator gene expression: IL-1β / Fold change in inflammatory mediator gene expression: IL-6 / Fold change in inflammatory mediator gene expression: IL-8 / Fold change in inflammatory mediator gene expression: MMP-8 / Fold change in inflammatory mediator gene expression: TNF-α: relative to control (=1), geometric mean (95% C.I.) n=3
# Description: (§1) Cultures of immortalized human oral keratinocytes (HOK-18A) are grown. The relative inflammatory potential of the substrate-treated multi-species biofilms is evaluated by analyzing the expression of five inflammatory mediator genes in human oral keratinocytes (HOKs) exposed to the substrate-treated biofilms. […] The IL-8 levels in the cellular supernatant are determined as well. RNA is converted to cDNA and relative expression of inflammatory mediator genes is determined as described above with respect to the cellular housekeeping gene (3-actin.
# In HOKs exposed to substrate-treated (substrate concentrations of 1 M) multi-species biofilms, mostly decreases in inflammatory mediator gene expression are observed and measured via SYBR RT-qPCR, the results of which are detailed in Table 6.
# (§2) All substrates are dissolved in PBS at a concentration of 1 M (upper part) or 1% (w/v) (lower part). Values between 0 and 1 represent relative downregulation, values >1 represent relative upregulation. […] For such values, statistically significant differences between two experimental conditions are marked with ‘#1’ (vs. NADM), ‘#2’ (vs. NADG), ‘#3’ (vs. D-(+)-mannose) (P<0.05).
# P. intermedia = experiment: Multi-species biofilm composition: absolute abundance of P. intermedia; conditions: mean±SD n=3
# Description: (§3) Biofilms are grown vertically on Calcium Deficient Hydroxyapatite (CAD-HA) disks (Hitemco Medical, Old Bethpage, USA) using the Amsterdam Active Adhesion model. Biofilms are allowed to establish during 24 h (37° C., 170 rpm) under micro-aerophilic conditions (6% O2, 7% CO2, 7% H2, 80% N2). After this 24 h, disks are rinsed 3 times a day for 3 minutes (RT, 250 rpm), for 3 consecutive days, by transferring the lid containing the disks to a new 24-well plate containing 2 mL/well of the appropriate substrate solution. As a negative control, PBS (pH 5.7) without substrate supplementation is used. After each rinsing step, disks are shortly dip-rinsed in a new 24-well plate containing fresh modified BHI medium (2 mL/well) to remove remaining substrate traces. Subsequently, the lid is transferred to another 24-well plate containing fresh modified BHI medium (2 mL/well), followed by incubation (micro-aerophilic, 37° C., 170 rpm) until the next rinsing step.
# (§4) NADM, N-acetyl-D-glucosamine (“NADG”) and D-(+)-mannose are selected to determine their effects on multi-species biofilm composition. Repeated rinsing of the biofilms with the substrates at a concentration of 1M results in a significant decrease in absolute numbers in at least four of the pathogenic bacterial species tested in the assay, compared to the control, the results of which are described in Table 1 below. Absolute abundances of bacterial species are shown as mean±SD (n=3) logarithmic values of the genome equivalents per millilitre (log(Geq/mL)).
# [2] = test system: human oral keratinocytes (HOK-18A); experiment: IL-8 levels in supernatants of keratinocyte cultures exposed to substrate-treated biofilms; conditions: for IL-8 levels in supernatants of HOK-18A cultures: mean±SD n=3
# Description: as §1
# as §2, with “Table 7: IL-8 levels detected in the supernatants of human oral keratinocytes (HOK-18A) cultures exposed to substrate-treated multi-species biofilms are shown as mean±SD (n=3) values (pg/mL). All” for “All”
# S. mutans = experiment: Multi-species biofilm composition: absolute abundance of S. mutans; conditions: for Absolute abundance S. mutans: mean±SD n=3
# Description: as §3, §4
# [3] = test system: F. nucleatum virulence genes; experiment: Multi-species biofilm virulence gene expression, SYBR RT-qPCR: F. nucleatum; conditions: relative to control (=1), 2^-ΔΔCt, geometric mean n=3
# Description: as §3
# (§5) The expression of 33 virulence genes from 4 periodontal pathogens is analysed to evaluate the relative virulence of the substrate-treated biofilms. For all three substrates, virulence gene expression is determined relatively to the control, and these values are also compared between substrates when this is relevant (Tables 5a-5d).
# S. salivarius = experiment: Multi-species biofilm composition: absolute abundance of S. salivarius; conditions: mean±SD n=3
# Description: as §3, §4
# [4] = test system: P. gingivalis virulence genes; experiment: Multi-species biofilm virulence gene expression, SYBR RT-qPCR: P. gingivalis; conditions: relative to control, 2^-ΔΔCt, geometric mean n=3
# Description: as §3, §5
# A. naeslundii = experiment: Multi-species biofilm composition: absolute abundance of A. naeslundii; conditions: mean±SD n=3
# Description: as §3, §4
# S. oralis = experiment: Multi-species biofilm composition: absolute abundance of S. oralis; conditions: for Absolute abundance S. oralis: mean±SD n=3
# Description: as §3
# NADM, N-acetyl-D-glucosamine (“NADG”) and D-(+)-mannose are selected to determine their effects on multi-species biofilm composition. […] decrease in absolute numbers in at least four of the pathogenic bacterial species tested in the assay, compared to the control, the results of which are described in Table 1 below. Absolute abundances of bacterial species are shown as mean±SD (n=3) logarithmic values of the genome equivalents per millilitre (log(Geq/mL)).
# [5] = biofilm rinsed with substrate 1%
# [6] = biofilm rinsed with substrate 1M
smiles,measurement,setting,value
"CC(=O)N[C@@H]1C(O)O[C@H](CO)[C@@H](O)[C@@H]1O (stereo partly drawn) [NADM, N-acetyl-D-mannosamine]",Fold change in inflammatory mediator gene expression: IL-1β,[1]; [5],0.83 (0.66-1.04) fold
same,Fold change in inflammatory mediator gene expression: IL-6,[1]; [5],0.73 (0.48-1.13) fold
same,Fold change in inflammatory mediator gene expression: IL-8,[1]; [5],1.32 (1.14-1.53) fold
same,Fold change in inflammatory mediator gene expression: MMP-8,[1]; [5],0.62 (0.21-1.84) fold
same,Fold change in inflammatory mediator gene expression: TNF-α,[1]; [5],0.69 (0.48-1.00) fold
same,Fold change in inflammatory mediator gene expression: IL-1β,[1]; [6],0.59 (0.30-1.14) fold
same,Fold change in inflammatory mediator gene expression: IL-6,[1]; [6],0.86 (0.34-2.18) fold
same,Fold change in inflammatory mediator gene expression: IL-8,[1]; [6],0.10 (0.05-0.17)* fold
same,Fold change in inflammatory mediator gene expression: MMP-8,[1]; [6],1.66 (0.82-3.35)* fold
same,Fold change in inflammatory mediator gene expression: TNF-α,[1]; [6],0.73 (0.64-0.83) fold
same,MMP-8 gene expression increase,[1]; substrate 1 M,1.7 fold
same,Absolute abundance Pi (P. intermedia),P. intermedia; substrate 1%(w/v) in PBS,7.48 ± 0.40 log(Geq/mL)
same,Absolute abundance Pi (P. intermedia),P. intermedia; substrate 1 M in PBS,9.07 ± 0.06 log(Geq/mL)
same,IL-8 levels in supernatants of HOK-18A cultures,[2]; biofilm rinsed with substrate 1%(w/v),30.32 ± 6.26 pg/mL
same,IL-8 levels in supernatants of HOK-18A cultures,[2]; [6],0.59 ± 0.61 pg/mL
same,Reduced IL-8 levels compared to the control,[2]; substrate 1%(w/v),2.4 fold
same,Decrease in S. mutans vs control,S. mutans; substrate 1%(w/v),0.5 log(Geq/mL)
same,Absolute abundance S. mutans,S. mutans; substrate 1%(w/v) in PBS,7.01 ± 0.05 log(Geq/mL)
same,Change in S. mutans numbers compared to the control,S. mutans; substrate 1 M,−1.2 log(Geq/mL)
same,Absolute abundance S. mutans,S. mutans; substrate 1 M in PBS,7.41 ± 0.44 log(Geq/mL)
same,Fold Change in virulence gene expression: ABC transp. perm.,[3]; substrate 1%,0.39 fold
same,Fold Change in virulence gene expression: EF-G,[3]; substrate 1%,0.11 fold
same,Fold Change in virulence gene expression: but.-coA transf.,[3]; substrate 1%,0.38 fold
same,Fold Change in virulence gene expression: hemin receptor,[3]; substrate 1%,0.10 fold
same,Fold Change in virulence gene expression: hemolysin,[3]; substrate 1%,0.55 fold
same,Fold Change in virulence gene expression: ompA,[3]; substrate 1%,0.75 fold
same,Fold Change in virulence gene expression: transposase,[3]; substrate 1%,0.75 fold
same,Fold Change in virulence gene expression: ABC transp. perm.,[3]; substrate 1M,2.46 fold
same,Fold Change in virulence gene expression: EF-G,[3]; substrate 1M,1.37 fold
same,Fold Change in virulence gene expression: but.-coA transf.,[3]; substrate 1M,0.76 fold
same,Fold Change in virulence gene expression: hemin receptor,[3]; substrate 1M,2.81 fold
same,Fold Change in virulence gene expression: hemolysin,[3]; substrate 1M,1.05 fold
same,Fold Change in virulence gene expression: ompA,[3]; substrate 1M,1.27 fold
same,Fold Change in virulence gene expression: transposase,[3]; substrate 1M,1.03 fold
same,Absolute abundance S. sal. (S. salivarius),S. salivarius; substrate 1%(w/v) in PBS,2.90 ± 0.36 log(Geq/mL)
same,Absolute abundance S. sal. (S. salivarius),S. salivarius; substrate 1 M in PBS,3.34 ± 0.55 log(Geq/mL)
same,Fold Change in virulence gene expression: fimA,[4]; substrate 1%,1.07 fold
same,Fold Change in virulence gene expression: kgp,[4]; substrate 1%,3.46 fold
same,Fold Change in virulence gene expression: partC,[4]; substrate 1%,0.62 fold
same,Fold Change in virulence gene expression: rgpA,[4]; substrate 1%,0.88 fold
same,Fold Change in virulence gene expression: fimA,[4]; substrate 1M,0.50 fold
same,Fold Change in virulence gene expression: kgp,[4]; substrate 1M,0.82 fold
same,Fold Change in virulence gene expression: partC,[4]; substrate 1M,0.20 fold
same,Fold Change in virulence gene expression: rgpA,[4]; substrate 1M,0.43 fold
same,Absolute abundance An (A. naeslundii),A. naeslundii; substrate 1%(w/v) in PBS,7.60 ± 0.22 log(Geq/mL)
same,Absolute abundance An (A. naeslundii),A. naeslundii; substrate 1 M in PBS,6.73 ± 0.39 log(Geq/mL)
same,Absolute abundance S. oralis,S. oralis; substrate 1%(w/v) in PBS,7.49 ± 0.30 log(Geq/mL)
same,Change in S. oralis numbers compared to the control,S. oralis; substrate 1 M,+2.5 log(Geq/mL)
same,Difference in S. oralis numbers compared to NADG,S. oralis; substrate 1 M,+1.5 log(Geq/mL)
same,Absolute abundance S. oralis,S. oralis; substrate 1 M in PBS,"9.46 ± 0.24*^, #2 log(Geq/mL)"
